The results in this text go back to patent US20230322815A1, “NOVEL COMPOUNDS AND THERAPEUTIC USES THEREOF” (University of Huddersfield, priority 2020, published 2023).

The subject of one series is ARPE19 non-cancer cells. The series is described as follows: Immunoblot of cellular proteins after treatment. Type of series: cell-based, human. As to conditions: 5 μM, 40 h. Here is the method: (§1) FIG. 12. Immunoblots showing the differential effects of [L2Cu3]^6+ and [L2Zn3]^6+ treatment of HCT116 cancer cells and ARPE19 non-cancer cells on key cellular proteins associated with cellular and metabolic stress. Representative immunoblot images of the indicated proteins following cell exposure to 5 μM [L2Cu3]^6+ or [L2Zn3]^6+ for 40 h. Tyrosine phosphorylated proteins are indicated using a pan-phospho-Tyr antibody; β-actin as a loading control.
(§2) Protein lysates and recombinant proteins were resolved on 15% SDS polyacrylamide gels. Proteins were electroblotted onto nitrocellulose membrane by wet transfer in 1×Tris Glycine buffer (Biorad) at 35 mA overnight at room temperature (Allison et al., 2014). After blocking of membranes, these were incubated with primary antibody overnight at 4° C. before addition of rabbit or mouse secondary antibody (HRP-conjugated) for 1 h at room temperature and development of blots by enhanced chemiluminescence. Primary antibodies were: anti-Src (total) (Cell Signalling Technology #2123 1:1000), anti-phosphorylated Src (Y527) (Cell Signalling Technology #21055 1:1000), anti-phosphorylated Src (Y416) (Cell Signalling Technology #69435 1:1000), anti-AMPKα (total) (Cell Signalling Technology #2532 1:1000), anti-phosphorylated AMPKα (T172) (Cell Signalling Technology […] 1:1000), anti-phospho-Tyr (pan) (Cell Signalling Technology #8954 1:2000), anti-p53 (Santa Cruz, DO-1 clone, 1:1000), anti-β-actin (Merck MAB1501, 1:40,000). Quantification of signals was performed by densitometry using Image J software.
For orientation: Immunoblotting shows a protein as a band on a membrane.

The subject of a further series is HCT116 cancer cells. The series can be described thus: Immunoblot of cellular proteins after treatment. It counts as cell-based, human. As to conditions: 5 μM, 40 h. Here is the method: as §1, §2
In the next series the test system is chick embryo. The series is described as follows: Embryonic toxicity, HT29 in ovo study. Type of series: in vivo, chick (White Leghorn). The following applies: for % Alive / % Dead / Alive (embryos at E18) / Dead (embryos at E18): HT29 study; for embryo tolerability: dose escalation showing no increased embryonic toxicity. Here is the method:
10^6 tumor cells (H460, HT29 or HCT116) were grafted onto the upper chorioallantoic membrane (CAM) of the developing chick embryo on embryonic day 9 (E9). Access to the upper CAM was through a small hole drilled through the eggshell of fertilized White Leghorn eggs (into the air sac) on E9 (15 eggs per experimental group).
100 μl of freshly prepared experimental compound, vehicle control or standard-of-care (SoC) drug at their working concentrations were pipetted onto the tumor graft at E11, E13, E15 and E17. On day E18, the upper CAM (with tumor) was removed, washed by PBS buffer and then directly transferred in PFA (fixation for 48 hrs). After that, tumors were carefully cut away from normal CAM tissue and weighed.
Embryonic viability was checked daily. The number of dead embryos was also counted on E18, to evaluate treatment-induced embryo toxicity.

Setting [1] is: dose [1]: L2Zn3 26.6 μM, L2Cu3 23.8 μM.
Setting [2] is: dose [2]: L2Zn3 53.2 μM, L2Cu3 65.7 μM.
Setting [3] is: dose [3]: L2Zn3 106.4 μM, L2Cu3 131.46 μM.

In the case of `[Cu+2].[Cu+2].[Cu+2].c1ccc(-c2csc(NCCN(CCNc3nc(-c4ccccn4)cs3)CCNc3nc(-c4ccccn4)cs3)n2)nc1.c1ccc(-c2csc(NCCN(CCNc3nc(-c4ccccn4)cs3)CCNc3nc(-c4ccccn4)cs3)n2)nc1` [[L2Cu3]^6+], the p53 levels entry in the series with ARPE19 non-cancer cells is given as “decreased”. Moreover, the “increase in p53 levels” value with HCT116 cancer cells is on record as about 1.7 fold. Further, in the series on chick embryo (setting [1]), the “% Alive” value is listed as 71.43%, the “% Dead” value was 28.57%, the “Alive (embryos at E18)” value turned out to be 10 and the “Dead (embryos at E18)” value is 4. In addition, in the series with chick embryo (setting [2]), the “% Alive” value is reported as 85.71%, the “% Dead” value was determined as 14.29%, the “Alive (embryos at E18)” value was found to be 12 and the “Dead (embryos at E18)” value amounted to 2. In the series with chick embryo (setting [3]), the “% Alive” value came to 92.31%, the “% Dead” value is on record as 7.69%, the “Alive (embryos at E18)” value is 12 and the “Dead (embryos at E18)” value was 1. For the same compound, in the series on chick embryo, the embryo tolerability result is “well tolerated”.
Take `[Zn+2].[Zn+2].[Zn+2].c1ccc(-c2csc(NCCN(CCNc3nc(-c4ccccn4)cs3)CCNc3nc(-c4ccccn4)cs3)n2)nc1.c1ccc(-c2csc(NCCN(CCNc3nc(-c4ccccn4)cs3)CCNc3nc(-c4ccccn4)cs3)n2)nc1` [[L2Zn3]^6+]: in the series with ARPE19 non-cancer cells, the p53 levels entry was “decreased”. Also, in the series with HCT116 cancer cells, the “cellular p-T172 AMPKα relative to total AMPKα levels” value is given as “increased” and the “increase in p53 levels” value is given as about 2.7 fold. Moreover, the “decrease in total levels of Tyr-phosphorylated proteins” value with HCT116 cancer cells (pan phospho-tyrosine antibody) was about 10%. In addition, in the series on chick embryo (setting [1]), the “% Alive” value is reported as 85.71%, the “% Dead” value amounted to 14.29%, the “Alive (embryos at E18)” value was 12 and the “Dead (embryos at E18)” value is 2. Further, in the series with chick embryo (setting [2]), the “% Alive” value was determined as 92.86%, the “% Dead” value worked out at 7.14%, the “Alive (embryos at E18)” value came to 13 and the “Dead (embryos at E18)” value is recorded as 1. For the same compound, in the series with chick embryo (setting [3]), the “% Alive” value was determined as 92.86%, the “% Dead” value amounted to 7.14%, the “Alive (embryos at E18)” value was found to be 13 and the “Dead (embryos at E18)” value is listed as 1. In addition, the embryo tolerability entry in the series on chick embryo is “well tolerated”.
